Measurements taken from US20250051347A1, “BIFUNCTIONAL CHIMERIC HETEROCYCLIC COMPOUND AND USE THEREOF AS ANDROGEN RECEPTOR DEGRADER” (Hinova Pharmaceuticals, Inc., priority 2021, published 2025).

How the values were obtained:
22RV1 cells = details: Homo sapiens, 22Rv1, 144 h, read-out: 22RV1 IC50 (nM), 22RV1 cells, 6 days culture, CCK-8, OD 450 nm
[1] = target: T1, androgen receptor (AR) splicing variant AR-v7 (Homo sapiens, UniProt P10275); experiment: Degradation activity on androgen receptor splicing variant AR-v7 in 22RV1 cells (ELISA); type: cell-based; details: AR-v7 degradation in 22RV1 cells, 48 h, class symbols
T1 construct: The degradation activity of compounds on AR-v7 in 22RV1 cells; host or cells: 22RV1 cells
T1 sequence (P10275 1-644 isoform P10275-3): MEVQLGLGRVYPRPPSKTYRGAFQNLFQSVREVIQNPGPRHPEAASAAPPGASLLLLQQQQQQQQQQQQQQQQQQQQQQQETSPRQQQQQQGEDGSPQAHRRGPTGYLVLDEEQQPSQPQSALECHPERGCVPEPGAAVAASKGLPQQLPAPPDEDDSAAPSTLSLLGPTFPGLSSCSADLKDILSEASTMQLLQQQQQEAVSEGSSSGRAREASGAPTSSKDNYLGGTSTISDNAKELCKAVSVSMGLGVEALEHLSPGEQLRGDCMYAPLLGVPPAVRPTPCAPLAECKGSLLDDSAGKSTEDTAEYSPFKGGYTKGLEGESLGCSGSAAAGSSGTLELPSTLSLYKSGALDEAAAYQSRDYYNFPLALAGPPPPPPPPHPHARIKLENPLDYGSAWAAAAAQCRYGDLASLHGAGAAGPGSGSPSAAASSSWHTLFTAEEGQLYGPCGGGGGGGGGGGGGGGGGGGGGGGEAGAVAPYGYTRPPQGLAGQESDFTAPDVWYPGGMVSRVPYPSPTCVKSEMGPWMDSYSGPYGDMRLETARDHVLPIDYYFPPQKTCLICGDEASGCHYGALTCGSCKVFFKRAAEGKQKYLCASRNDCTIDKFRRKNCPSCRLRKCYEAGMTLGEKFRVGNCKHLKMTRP

[2] = Pharmacokinetics in mice (plasma exposure after oral administration); type: in vivo; details: mouse, ICR mice, oral (i.g.) 3 mg/kg, read-out: After oral administration of 3 mg/kg, mouse plasma exposure AUCinf

SMILES	IC50 (22RV1 cells)	DC50 [1]	AUC(0-inf) [2]
Cc1nc(-c2ncc(Oc3ccc(C4(c5ccc(O[C@H]6C[C@H](Nc7ccc8c(c7)C(=O)N(C7CCC(=O)NC7=O)C8=O)C6)cc5)CC4)cc3)cn2)no1 (stereo partly drawn) [Example 212]	14 nM	< 10 nM	5000 to 30000 ng·h/mL
CC(O)c1ncc(Oc2ccc(C(C)(C)c3ccc(O[C@H]4C[C@H](Nc5ccc6c(c5)C(=O)N(C5CCC(=O)NC5=O)C6=O)C4)cn3)cc2)cn1 (stereo partly drawn) [Example 223]	0.5 nM	< 10 nM	1000 to 5000 ng·h/mL
CC(C)(c1ccc(OCc2ccnc(-n3nccn3)n2)cc1)c1ccc(O[C@H]2C[C@H](Nc3ccc4c(c3)C(=O)N(C3CCC(=O)NC3=O)C4=O)C2)cc1 (stereo partly drawn) [Example 231]	8.6 nM	11 to 100 nM	5000 to 30000 ng·h/mL
CN1CCC(Nc2nccc(COc3ccc(C(C)(C)c4ccc(O[C@H]5C[C@H](Nc6ccc7c(c6)C(=O)N(C6CCC(=O)NC6=O)C7=O)C5)cc4)cc3)n2)CC1 (stereo partly drawn) [Example 232]	8 nM	< 10 nM	100 to 1000 ng·h/mL
CC(C)(c1ccc(OCc2ccnc(NC3CCN(CCCCO)CC3)n2)cc1)c1ccc(O[C@H]2C[C@H](Nc3ccc4c(c3)C(=O)N(C3CCC(=O)NC3=O)C4=O)C2)cc1 (stereo partly drawn) [Example 239]	3 nM	< 10 nM	100 to 1000 ng·h/mL
CC(C)(c1ccc(Oc2ccnc(N3CC4(COC4)C3)n2)cc1)c1ccc(OC2CC(Nc3ccc4c(c3)C(=O)N(C3CCC(=O)NC3=O)C4=O)C2)cc1 (stereo not drawn) [Example 240, 5-((3-(4-(2-(4-((2-(2-oxa-6-azaspiro[3.3]heptan-6-yl)pyrimidin-4-yl)oxy)phenyl)propan-2-yl)phenoxy)cyclobutyl)amino)-2-(2,6-dioxopiperidin-3-yl)isoindolin-1,3-dione]	12 nM	< 10 nM	1000 to 5000 ng·h/mL
CC(C)(c1ccc(Oc2cnc(N3CC4(COC4)C3)nc2)cc1)c1ccc(O[C@H]2C[C@H](Nc3ccc4c(c3)C(=O)N(C3CCC(=O)NC3=O)C4=O)C2)cc1 (stereo partly drawn) [Example 248]	23 nM	< 10 nM	1000 to 5000 ng·h/mL
Cc1noc(-c2nccc(COc3ccc(C(C)(C)c4ccc(O[C@H]5C[C@@H](Nc6ccc7c(c6)C(=O)N(C6CCC(=O)NC6=O)C7=O)C5)cc4)cc3)n2)n1 (stereo partly drawn) [Example 251]	6 nM	< 10 nM	1000 to 5000 ng·h/mL
Cc1noc(-c2ncc(Oc3ccc(C(C)(C)c4ccc(O[C@H]5C[C@H](Nc6ccc7c(c6)C(=O)N(C6CCC(=O)NC6=O)C7=O)C5)cc4)cc3)cn2)n1 (stereo partly drawn) [Example 254]	6 nM	< 10 nM	5000 to 30000 ng·h/mL
C=CC(c1ccc(Oc2ccc(-c3noc(C)n3)nn2)cc1)c1ccc(O[C@H]2C[C@H](Nc3ccc4c(c3)C(=O)N(C3CCC(=O)NC3=O)C4=O)C2)cc1 (stereo partly drawn) [Example 259]	7 nM	< 10 nM	5000 to 30000 ng·h/mL
CC1(N)CN(c2nccc(COc3ccc(C(C)(C)c4ccc(O[C@H]5C[C@@H](Nc6ccc7c(c6)C(=O)N(C6CCC(=O)NC6=O)C7=O)C5)cc4)cc3)n2)C1 (stereo partly drawn) [Example 268]	9 nM	< 10 nM	1000 to 5000 ng·h/mL
CC1(N)CN(c2nccc(COc3ccc(C(C)(C)c4ccc(O[C@H]5C[C@H](Nc6ccc7c(c6)C(=O)N(C6CCC(=O)NC6=O)C7=O)C5)cc4)cc3)n2)C1 (stereo partly drawn) [Example 275]	4 nM	< 10 nM	1000 to 5000 ng·h/mL
Cc1nc(-c2nccc(COc3ccc(C(C)(C)c4ccc(O[C@H]5C[C@H](Nc6ccc7c(c6)C(=O)N(C6CCC(=O)NC6=O)C7=O)C5)cc4)cc3)n2)no1 (stereo partly drawn) [Example 279]	4 nM	< 10 nM	5000 to 30000 ng·h/mL
CC(C)(c1ccc(OCc2ccnc(N3CC4(COC4)C3)n2)cc1)c1ccc(OC[C@@H]2CCN2c2ccc3c(c2)C(=O)N(C2CCC(=O)NC2=O)C3=O)cc1 (stereo partly drawn) [Example 312, 5-((S)-2-((4-(2-(4-((2-(2-oxa-6-azaspiro[3.3]heptan-6-yl)pyrimidin-4-yl)methoxy)phenyl)propan-2-yl)phenoxy)methyl)azetidin-1-yl)-2-(2,6-dioxopiperidin-3-yl)isoindolin-1,3-dione]	22 nM	< 10 nM	100 to 1000 ng·h/mL
CC(C)(c1ccc(Oc2ncc(-n3nccn3)cn2)cc1)c1ccc(O[C@H]2C[C@H](Nc3ccc4c(c3)C(=O)N(C3CCC(=O)NC3=O)C4=O)C2)cc1 (stereo partly drawn) [Example 321]	8 nM	< 10 nM	5000 to 30000 ng·h/mL
Cc1nnc(-c2ccc(Oc3ccc(C(C)(C)c4ccc(O[C@H]5C[C@H](Nc6ccc7c(c6)C(=O)N(C6CCC(=O)NC6=O)C7=O)C5)cc4)cc3)cn2)o1 (stereo partly drawn) [Example 323]	11 nM	< 10 nM	5000 to 30000 ng·h/mL
CC(C)(c1ccc(Oc2ccc(-n3nccn3)nn2)cc1)c1ccc(O[C@H]2C[C@H](Nc3ccc4c(c3)C(=O)N(C3CCC(=O)NC3=O)C4=O)C2)cc1 (stereo partly drawn) [Example 324]	4 nM	< 10 nM	5000 to 30000 ng·h/mL
Cc1nc(-c2ccc(Oc3ccc(C(C)(C)c4ccc(O[C@H]5C[C@H](Nc6ccc7c(c6)C(=O)N(C6CCC(=O)NC6=O)C7=O)C5)cc4)cc3)nn2)no1 (stereo partly drawn) [Example 328]	5 nM	11 to 100 nM	5000 to 30000 ng·h/mL
Cc1nc(-c2ccc(Oc3ccc(C4(c5ccc(O[C@H]6C[C@H](Nc7ccc8c(c7)C(=O)N(C7CCC(=O)NC7=O)C8=O)C6)cc5)CCCC4)cc3)nn2)no1 (stereo partly drawn) [Example 338]	2 nM	< 10 nM	1000 to 5000 ng·h/mL
O=C1CCC(N2C(=O)c3ccc(N[C@H]4C[C@H](Oc5ccc(C6(c7ccc(OCc8ccnc(N9CC%10(COC%10)C9)n8)cc7)COC6)cc5)C4)cc3C2=O)C(=O)N1 (stereo partly drawn) [Example 355, 5-(((1r,3r)-3-(4-(3-(4-((2-(2-oxa-6-azaspiro[3.3]heptane-6-yl)pyrimidin-4-yl)methoxy)phenyl)oxetane-3-yl)phenoxy)cyclobutyl)amino)-2-(2,6-dioxopiperidin-3-yl)isoindolin-1,3-dione]	2 nM	< 10 nM	5000 to 30000 ng·h/mL
O=C1CCC(N2C(=O)c3ccc(N[C@H]4C[C@H](Oc5ccc(C6(c7ccc(OCc8ccnc(N9CC%10(COC%10)C9)n8)cc7)CCC6)cc5)C4)cc3C2=O)C(=O)N1 (stereo partly drawn) [Example 358, 5-(((1r,3r)-3-(4-(1-(4-((2-(2-oxa-6-azaspiro[3.3]heptane-6-yl)pyrimidin-4-yl)methoxy)phenyl)cyclobutyl)phenoxy)cyclobutyl)amino)-2-(2,6-dioxopiperidin-3-yl)isoindolin-1,3-dione]	9 nM	< 10 nM	1000 to 5000 ng·h/mL
O=C1CCC(N2C(=O)c3ccc(N[C@H]4C[C@@H](Oc5ccc(C6(c7ccc(OCc8ccnc(N9CC%10(COC%10)C9)n8)cc7)CCC6)cc5)C4)cc3C2=O)C(=O)N1 (stereo partly drawn) [Example 359, 5-(((1s,3s)-3-(4-(1-(4-((2-(2-oxa-6-azaspiro[3.3]heptane-6-yl)pyrimidin-4-yl)methoxy)phenyl)cyclobutyl)phenoxy)cyclobutyl)amino)-2-(2,6-dioxopiperidin-3-yl)isoindolin-1,3-dione]	6 nM	< 10 nM	1000 to 5000 ng·h/mL
O=C1CCC(N2C(=O)c3ccc(N[C@H]4C[C@H](Oc5ccc(C6(c7ccc(OCc8ccnc(N9CC%10(COC%10)C9)n8)cc7)CCCC6)cc5)C4)cc3C2=O)C(=O)N1 (stereo partly drawn) [Example 360, 5-(((1r,3r)-3-(4-(1-(4-((2-(2-oxa-6-azaspiro[3.3]heptane-6-yl)pyrimidin-4-yl)methoxy)phenyl)cyclopentyl)phenoxy)cyclobutyl)amino)-2-(2,6-dioxopiperidin-3-yl)isoindolin-1,3-dione]	4 nM	< 10 nM	1000 to 5000 ng·h/mL
O=C1CCC(N2C(=O)c3ccc(N[C@H]4C[C@@H](Oc5ccc(C6(c7ccc(OCc8ccnc(N9CC%10(COC%10)C9)n8)cc7)CCCC6)cc5)C4)cc3C2=O)C(=O)N1 (stereo partly drawn) [Example 361, 5-(((1s,3s)-3-(4-(1-(4-((2-(2-oxa-6-azaspiro[3.3]heptane-6-yl)pyrimidin-4-yl)methoxy)phenyl)cyclopentyl)phenoxy)cyclobutyl)amino)-2-(2,6-dioxopiperidin-3-yl)isoindolin-1,3-dione]	8 nM	< 10 nM	1000 to 5000 ng·h/mL
O=C1CCC(N2C(=O)c3ccc(N[C@H]4C[C@H](Oc5ccc(S(=O)(=O)c6ccc(OCc7ccnc(N8CC9(COC9)C8)n7)cc6)cc5)C4)cc3C2=O)C(=O)N1 (stereo partly drawn) [Example 362, 5-(((1r,3r)-3-(4-((4-((2-(2-oxa-6-azaspiro[3.3]heptane-6-yl)pyrimidin-4-yl)methoxy)phenyl)sulfonyl)phenoxy)cyclobutyl)amino)-2-(2,6-dioxopiperidin-3-yl)isoindolin-1,3-dione]	20 nM	< 10 nM	100 to 1000 ng·h/mL
C=CC(c1ccc(OCc2ccnc(N3CC4(COC4)C3)n2)cc1)c1ccc(O[C@H]2C[C@H](Nc3ccc4c(c3)C(=O)N(C3CCC(=O)NC3=O)C4=O)C2)cc1 (stereo partly drawn) [Example 367]	8 nM	< 10 nM	1000 to 5000 ng·h/mL
